For data set [1], the system named is mice. The experiment in a line: Reserpine Potentiation. It counts as in vivo, dd-strain, female. The note with it: Mus musculus, po, 30 minutes before reserpine 10 mg./kg. i.p.; dose potentiating reserpine effect by 30 percent 15 minutes after reserpine; read-out: Reserpine Potentiation PD30. On the procedure:
Reserpine potentiation was measured by the method described by M. D. Aceto in "Toxicology and Applied Pharmacology," vol. 7, p. 329 ff. (1965). […] The degree of blepharoptosis of both eyes was observed 15, 60, 120 and 180 minutes after the administration of reserpine.

A short description of the next data set: Acute Toxicity. More on the design: species or system mice, female. The conditions noted are these: mouse, in vivo, po; lethal rate within two days. How it is done:
The test compound was orally administered to groups each of 5 female mice respectively. The LD50 was calculated from the lethal rate (50 percent) within two days after administration of the test compound.

Data set [2] relates to mice. The experiment in a line: Suppression of Spontaneous Motility. It counts as in vivo, dd-strain, male. The conditions noted are these: Mus musculus, ip; counted for 20 minutes, 40 minutes after administration; dose for 50 percent suppression. On the procedure:
The spontaneous motility of mice was counted by magnetic counter of photocell method according to P. B. Dews in "British Gournal of Pharmacology", vol. 8, p. 46 ff. (1953). Forty minutes after the intraperitoneal administration of the test compound, the spontaneous motility was counted for 20 minutes.

For data set [3], the system named is mice. The experiment in a line: Suppression of Fighting Behavior. It counts as in vivo, dd-strain, female. The note with it: Mus musculus, po, 60 minutes prior to electric foot-shock; dose to suppress 50 percent of fighting pairs. On the procedure: 125, p. 28 ff. (1959). […] The ED50, the dose required to suppress 50 percent of fighting pairs, was determined graphically.

Data set [4] has as its system mice. The data set can be described thus: Antimescaline Effect. The note with it: Mus musculus, po, 60 minutes prior to mescaline sulfate 30 mg./kg. i.p.; prevention of scratching in 50 percent of animals. It counts as in vivo, female. On the procedure:
A modification of the method of R. A. Turner [Screening Method in Pharmacology, Edited by R. A. Turner, p. 73, Academic Press (1965)] was used to study the prevention of scratching episodes induced by mescaline. The test compound was given to groups each of 6 female mice orally 60 minutes prior to treatment with mescaline sulfate (30 mg./kg. of body weight, intraperitoneal).

The test system of data set [5] is mice. The experiment in a line: Methamphetamine Group Toxicity. The conditions noted are these: Mus musculus, po, 5 h, read-out: Methamphetamine Group Toxicity, ED50.

This passage reports ED30, LD50 and ED50 results from patent US3932423A, “Imidazolido(1,5-c)thiazolidine-3-spiro-4-piperidines” (Yoshitomi Pharmaceutical Industries, priority 1973, dated 1976).

On to `CN1C(=O)C2CSC3(CCN(CCCC(=O)c4ccc(F)cc4)CC3)N2C1=O` (stereo not drawn) [Compound A, 5,7-dioxo-6-methylimidazolido[1,5-c]thiazolidine-3-spiro-4'-[1'-(4-p-fluorophenyl-4-oxobutyl)piperidine]], for which the ED30 with mice [1] stood at 1.9 mg/kg. For the same molecule, the LD50 (usually the dose expected to kill half of the subjects tested) at 48 h in “Acute Toxicity” was greater than 1000 mg/kg. For the same molecule, the ED50 (commonly the dose at which the effect has come halfway, by size or by number of responders) in the data set on mice [2] is 0.1 mg/kg; with mice [3], 2.6 mg/kg; with mice [4], 0.1 mg/kg; in the data set with mice [5], 1.1 mg/kg.
With `NC(=O)C1(N2CCCCC2)CCN(CCCC(=O)c2ccc(F)cc2)CC1` [Floropipamide], in the data set on mice [1], the ED30 came to 2.5 mg/kg. Moreover, in “Acute Toxicity”, the LD50 at 48 h is greater than 1000 mg/kg. Further, the ED50 stood at 1 mg/kg in the data set on mice [2], 5.6 mg/kg in the data set on mice [3], 1 mg/kg in the data set on mice [4] and 9.2 mg/kg in the data set on mice [5].
